The source of these data is patent EP2070923A1, “Insecticide iminoheterocycles” (priority 2007, dated 2009).

For one data set, the system named is Myzus persicae. The experiment in a line: Myzus test (spray treatment). The class given is in vivo. The note with it: foliar, read-out: Wirkung. The text has this: Myzus-Test (Spritzbehandlung)
Zur Herstellung einer zweckmäßigen Wirkstoffzubereitung vermischt man 1 Gewichtsteil Wirkstoff mit den angegebenen Mengen Lösungsmittel und Emulgator und verdünnt das Konzentrat mit emulgatorhaltigem Wasser auf die gewünschte Konzentration. Chinakohlblattscheiben (Brassica pekinensis), die von allen Stadien der Grünen Pfirsichblattlaus (Myzus persicae) befallen sind, werden mit einer Wirkstoffzubereitung der gewünschten Konzentration gespritzt. Nach der gewünschten Zeit wird die Wirkung in % bestimmt. Dabei bedeutet 100 %, dass alle Blattläuse abgetötet wurden; 0 % bedeutet, dass keine Blattläuse abgetötet wurden. Bei diesem Test zeigen z. B. die folgenden Verbindungen der Herstellungsbeispiele eine Wirkung von ≥ 80 % bei einer Aufwandmenge von 500 g/ha: • Bsp. Nr. 2, 3, 31, 32, 33, 36, 37, 39, 40, 41, 42, 43, 44, 45, 46, 63, 64, 65, 66, 86, 87, 88, 90, 95, 96, 97, 99, 103

The nature of another data set: logP (HCOOH). To be noted: hplc, formic acid.
The nature of the next data set: physchem. To be noted: hplc, formic acid.
The next data set deals with Boophilus microplus. The data set is described as follows: Boophilus microplus test (injection). To be noted: 20 µg/Tier; injection into abdomen; 100 % = no tick laid fertile eggs. The format is in vivo. An excerpt:
Boophilus microplus -Test (Injektion)
Zur Herstellung einer zweckmäßigen Wirkstoffzubereitung vermischt man 1 Gewichtsteil Wirkstoff mit der angegebenen Menge Lösungsmittel und verdünnt das Konzentrat mit Lösungsmittel auf die gewünschte Konzentration. Die Wirkstofflösung wird in das Abdomen (Boophilus microplus) injiziert, die Tiere werden in Schalen überführt und in einem klimatisierten Raum aufbewahrt. Nach der gewünschten Zeit wird die Wirkung in % bestimmt. Dabei bedeutet 100%, dass keine Zecke fertile Eier gelegt hat. Bei diesem Test zeigen z. B. die folgenden Verbindungen der Herstellungsbeispiele eine Wirkung von = 80 % bei einer Aufwandmenge von 20 µg/Tier: • Bsp. Nr. 43, 44, 45, 46, 63, 64, 65, 66

[1] abbreviates: 500 g/ha, spray on Brassica pekinensis leaf discs, 100 % = all aphids killed.

Each structure is given as a SMILES string. Where two headings read alike, the source gives them in different places.

For `CC(N=C1NCCO1)c1ccco1` (stereo not drawn) [Beispiel 95], the mortality at 500 g/ha with Myzus persicae (in Brassica rapa) was at least 80%.

The chromatographic logP is lipophilicity estimated from chromatographic retention. The low end stands for lower lipophilicity, the high end for higher lipophilicity. `CCNC(=S)N1CCOC1=NC(CC)c1cccs1` (stereo not drawn) [Beispiel 87]: in the data set “logP (HCOOH)”, the chromatographic logP worked out at 4.06. The mortality at 500 g/ha with Myzus persicae (setting [1]) is at least 80%.

As to `CC(N=C1NCCO1)c1cccs1` (stereo not drawn) [Beispiel 36], the mortality at 500 g/ha in the data set with Myzus persicae (in Brassica rapa) was at least 80%. This molecule also returned a chromatographic logP in the data set “physchem” of 0.28.

In the case of `CCn1ccc(C(C)N=C2OCCN2C(=S)NC)n1` (stereo not drawn) [Beispiel 76], the chromatographic logP in the data set “logP (HCOOH)” was 1.45.

As for `CCC(N=C1OCCN1C(=S)NCCOC)c1cc(Br)cs1` (stereo not drawn) [Beispiel 30], the chromatographic logP in the data set “logP (HCOOH)” amounted to 4.48.

In turn, `CCNC(=S)N1CCOC1=NC(C)c1ccnc(Cl)c1` (stereo not drawn) [Beispiel 196] gave a chromatographic logP in the data set “logP (HCOOH)” of 3.07.

The molecule `COCCNC(=S)N1CCOC1=NCc1ccco1` [Beispiel 93] came in with a chromatographic logP in the data set “logP (HCOOH)” of 2.84.

As for `CCC(N=C1NCCO1)c1ccccn1` (stereo not drawn) [Beispiel 12], in the data set “physchem”, the chromatographic logP is -0.01.

The molecule `CCNC(=S)N1CCOC1=NC(CC)c1ccc(C)c(C)n1` (stereo not drawn) [Beispiel 10] registered a chromatographic logP in the data set “logP (HCOOH)” of 1.14.

Turning to `CCNC(=S)N1CCOC1=NC(CC)c1cc(Br)cs1` (stereo not drawn) [Beispiel 31], the chromatographic logP in “logP (HCOOH)” was determined as 4.72. In the data set on Myzus persicae (setting [1]), the mortality at 500 g/ha was at least 80%.

`CC(N=C1OCCN1C(=S)NCC(F)(F)F)c1cc2ccccc2o1` (stereo not drawn) [Beispiel 107]: in the data set “logP (HCOOH)”, the chromatographic logP was found to be 4.47.

For the molecule `c1cc(CN=C2NCCO2)cs1` [Beispiel 32], in the data set on Myzus persicae (in Brassica rapa), the mortality at 500 g/ha was at least 80%. The chromatographic logP in the data set “physchem” is -0.05.

In the data set with Boophilus microplus, `CCNC(=S)N1CCOC1=N[C@@H](C)c1cccs1` [Beispiel 64] displayed a Wirkung of 80%. Moreover, in the data set “logP (HCOOH)”, the chromatographic logP was found to be 3.59. The mortality at 500 g/ha in the data set on Myzus persicae (setting [1]) was at least 80%.

Regarding `Cn1cccc1CN=C1NCCO1` [Beispiel 80], the chromatographic logP in “physchem” is -0.09.

`COCCNC(=S)N1CCOC1=NC(C)c1cc2ccccc2o1` (stereo not drawn) [Beispiel 106]: the chromatographic logP in “logP (HCOOH)” was 3.9.

`CCC(N=C1OCCN1C(=S)NCCOC)c1ccc(C)c(C)n1` (stereo not drawn) [Beispiel 11]: in “logP (HCOOH)”, the chromatographic logP came to 1.33.

On to `CCNC(=S)N1CCOC1=NC(C)c1cc2ccccc2o1` (stereo not drawn) [Beispiel 105], for which the chromatographic logP in the data set “logP (HCOOH)” was 4.18.

As to `COCCNC(=S)N1CCOC1=NC(C)c1ccncc1` (stereo not drawn) [Beispiel 19], in “logP (HCOOH)”, the chromatographic logP is 1.

Regarding `COCCNC(=S)N1CCOC1=NCc1ccsc1` [Beispiel 34], in the data set “logP (HCOOH)”, the chromatographic logP came to 2.71.

Consider `CCC(N=C1NCCO1)c1ccc(C)c(C)n1` (stereo not drawn) [Beispiel 8], for which, in “physchem”, the chromatographic logP was 0.06.

`COCCNC(=S)N1CCOC1=NC(C)c1ccnc(Cl)c1` (stereo not drawn) [Beispiel 197]: in the data set “logP (HCOOH)”, the chromatographic logP was 2.83.

On to `CNC(=S)N1CCOC1=NCc1ccsc1` [Beispiel 35], for which, in the data set “logP (HCOOH)”, the chromatographic logP worked out at 1.83.

For the molecule `CCNC(=S)N1CCOC1=NC(CC)c1ccccn1` (stereo not drawn) [Beispiel 13], in the data set “logP (HCOOH)”, the chromatographic logP was determined as 1.53.

In turn, `CNC(=S)N1CCOC1=NC(C)c1ccco1` (stereo not drawn) [Beispiel 96] had a chromatographic logP in the data set “logP (HCOOH)” of 2.38. Also, the mortality at 500 g/ha in the data set on Myzus persicae (setting [1]) was at least 80%.

The molecule `CCC(N=C1OCCN1C(=O)NCCCl)c1ccc(C(F)(F)F)cn1` (stereo not drawn) [Beispiel 5] came in with a chromatographic logP in “logP (HCOOH)” of 2.15.

As for `CCNC(=S)N1CCOC1=NCc1ccco1` [Beispiel 92], the chromatographic logP in the data set “logP (HCOOH)” worked out at 2.58.

`COCCNC(=S)N1CCOC1=NC(C)c1ccccn1` (stereo not drawn) [Beispiel 3]: in “logP (HCOOH)”, the chromatographic logP worked out at 1.12. In the data set on Myzus persicae (setting [1]), the mortality at 500 g/ha was at least 80%.

In the case of `C[C@H](N=C1NCCO1)c1cccs1` [Beispiel 37], in the data set on Myzus persicae (in Brassica rapa), the mortality at 500 g/ha was at least 80%. Besides, in “physchem”, the chromatographic logP stood at 0.33.

In turn, `CNC(=S)N1CCOC1=NCc1cccs1` [Beispiel 40] displayed a chromatographic logP in “logP (HCOOH)” of 2.45. In addition, the mortality at 500 g/ha in the data set on Myzus persicae (setting [1]) is at least 80%.

As to `CCC(N=C1OCCN1C(=S)NCCOC)c1ccc(C(F)(F)F)cn1` (stereo not drawn) [Beispiel 6], in the data set “logP (HCOOH)”, the chromatographic logP was 3.69.

Molecule `C[C@H](N=C1NCCS1)c1cccs1` [Beispiel 101] displayed a chromatographic logP in the data set “physchem” of 0.54.

Turning to `CNC(=S)N1CCOC1=NC(C)c1cc2ccccc2o1` (stereo not drawn) [Beispiel 104], the chromatographic logP in the data set “logP (HCOOH)” was 3.64.

Regarding `C[C@H](N=C1OCCN1C(=S)NCC(F)(F)F)c1cccs1` [Beispiel 66], the Wirkung in the data set on Boophilus microplus worked out at 80%. Besides, in the data set “logP (HCOOH)”, the chromatographic logP amounted to 3.98. Further, the mortality at 500 g/ha in the data set on Myzus persicae (setting [1]) is at least 80%.

In the data set on Boophilus microplus, `COCCNC(=S)N1CCOC1=NC(C)c1cccs1` (stereo not drawn) [Beispiel 45] had a Wirkung of 80%. The molecule further displayed a chromatographic logP in the data set “logP (HCOOH)” of 3.28. The mortality at 500 g/ha with Myzus persicae (setting [1]) is at least 80%.

On to `CCNC(=S)N1CCOC1=NC(C)c1cccs1` (stereo not drawn) [Beispiel 44], for which, in the data set with Boophilus microplus, the Wirkung is recorded as 80%. This molecule also gave a chromatographic logP in the data set “logP (HCOOH)” of 3.58. In the data set on Myzus persicae (setting [1]), the mortality at 500 g/ha is at least 80%.

The molecule `CCNC(=S)N1CCOC1=NCc1ccsc1` [Beispiel 33] came in with a chromatographic logP in the data set “logP (HCOOH)” of 2.56. The mortality at 500 g/ha in the data set on Myzus persicae (setting [1]) is at least 80%.

In “logP (HCOOH)”, `CCOC(=O)CNC(=S)N1CCOC1=NC(C)c1ccnc(Cl)c1` (stereo not drawn) [Beispiel 198] returned a chromatographic logP of 3.14.

On to `CNC(=S)N1CCOC1=NC(C)c1cccs1` (stereo not drawn) [Beispiel 43], for which the Wirkung with Boophilus microplus is recorded as 80%. For the same molecule, in “logP (HCOOH)”, the chromatographic logP stood at 2.99. In the data set on Myzus persicae (setting [1]), the mortality at 500 g/ha was at least 80%.

Regarding `CCOC(=O)CNC(=S)N1CCOC1=NCc1ccc(Cl)nc1` [Beispiel 188], the chromatographic logP in the data set “logP (HCOOH)” amounted to 2.54.

As to `CCC(N=C1OCCN1C(=O)NCCCl)c1ccc(C)c(C)n1` (stereo not drawn) [Beispiel 9], in the data set “logP (HCOOH)”, the chromatographic logP came out at 1.18.

On to `FC(F)(F)CNC(=S)N1CCOC1=NCc1ccco1` [Beispiel 94], for which the chromatographic logP in “logP (HCOOH)” was 3.29.

For the molecule `CCC(N=C1NCCO1)c1ccc(C(F)(F)F)cn1` (stereo not drawn) [Beispiel 4], in “physchem”, the chromatographic logP was 0.97.

Molecule `COCCNC(=S)N1CCOC1=NCc1cccs1` [Beispiel 42] displayed a chromatographic logP in the data set “logP (HCOOH)” of 2.84. In addition, the mortality at 500 g/ha in the data set on Myzus persicae (setting [1]) was at least 80%.

For the molecule `CCNC(=S)N1CCO/C1=N/C(C)c1ccccn1` (stereo not drawn) [Beispiel 2, (2E)-N-ethyl-2-[(1-pyridin-2-ylethyl)imino]-1,3-oxazolidine-3-carbothioamid], in the data set “logP (HCOOH)”, the chromatographic logP amounted to 1.26. For the same molecule, the mortality at 500 g/ha in the data set on Myzus persicae (setting [1]) was at least 80%.

As for `c1csc(CN=C2NCCO2)c1` [Beispiel 39], the mortality at 500 g/ha in the data set with Myzus persicae (in Brassica rapa) is at least 80%. In the data set “physchem”, this molecule showed a chromatographic logP of -0.08.

In “logP (HCOOH)”, `CCNC(=S)N1CCOC1=NC(CC)c1ccc(C(F)(F)F)cn1` (stereo not drawn) [Beispiel 7] had a chromatographic logP of 3.85.

For the molecule `CC(C)NC(=S)N1CCOC1=NCc1ccc(Cl)nc1` [Beispiel 187], the chromatographic logP in the data set “physchem” is 3.14.

Take `CC(N=C1NCCO1)c1ccnc(Cl)c1` (stereo not drawn) [Beispiel 194]: the chromatographic logP in the data set “physchem” turned out to be 0.02.

For the molecule `c1coc(CN=C2NCCO2)c1` [Beispiel 90], in the data set on Myzus persicae (in Brassica rapa), the mortality at 500 g/ha was at least 80%. This molecule came in with a chromatographic logP in “physchem” of -0.23.

Regarding `CCC(N=C1OCCN1C(=S)NCCOC)c1cccs1` (stereo not drawn) [Beispiel 88], the chromatographic logP in “logP (HCOOH)” was 3.71. For the same molecule, the mortality at 500 g/ha with Myzus persicae (setting [1]) is at least 80%.

Regarding `CNC(=S)N1CCOC1=NCc1ccco1` [Beispiel 91], the chromatographic logP in the data set “logP (HCOOH)” was found to be 1.89.

In the case of `CC(N=C1NCCO1)c1cc2ccccc2o1` (stereo not drawn) [Beispiel 103], the mortality at 500 g/ha in the data set on Myzus persicae (in Brassica rapa) was at least 80%. The chromatographic logP in the data set “physchem” came to 0.93.

As to `CCNC(=S)N1CCOC1=NC(CC)c1ccc(Cl)s1` (stereo not drawn) [Beispiel 108], the chromatographic logP in “logP (HCOOH)” was 4.96.

Molecule `CNC(=S)N1CCOC1=NC(C)c1ccnc(Cl)c1` (stereo not drawn) [Beispiel 195] came in with a chromatographic logP in the data set “logP (HCOOH)” of 2.58.

`CCC(N=C1OCCN1C(=S)NC)c1cccs1` (stereo not drawn) [Beispiel 86] yielded a chromatographic logP in “logP (HCOOH)” of 3.46. Further, the mortality at 500 g/ha in the data set with Myzus persicae (setting [1]) is at least 80%.
